According to PMC9606955, “In Vitro Activity of Essential Oils Distilled from Colombian Plants against Candida auris and Other Candida Species with Different Antifungal Susceptibility Profiles” (Molecules, 2022):
Converted amounts (≈) assume the structure as drawn. Like-named read-outs stand apart in the source and are kept apart here. One block for each molecule: values may come before it.

Tests used:
[1] = system: C. krusei ATCC 6258; assay: MIC, CLSI M27 broth microdilution; assay type: cell-based, Candida krusei; details: for MIC: Pichia kudriavzevii, read-out: GM MIC
From the text: (§1) The fungal strains used in this study were C. albicans ATCC 10231, C. albicans ATCC 64550, C. parapsilosis ATCC 22019, C. tropicalis ATCC 750, C. tropicalis ATCC 200956 (resistant to azoles and AMB), C. glabrata LMDM 34 (resistant to echinocandins), C. metapsilosis MUM 15.12, C. orthopsilosis MUM 17.13, C. lusitaniae MUM 17.08, C. krusei ATCC 6258 (Issatchenkia orientalis ATCC 6258), and C. auris CDC B11903. Additionally, nine clinical isolates were included: C. parapsilosis Synlab 406 (FLC-resistant) and eight C. auris isolates identified by MALDI-TOF MS (Bruker Daltonics, Bremen, Germany) according to Zhao et al.. These yeasts were cultured on Sabouraud Dextrose Agar (SDA; Sigma-Aldrich, St. Louis, MO, USA) for 24 h at 35 °C.
(§2) Antifungal susceptibility testing was performed according to Clinical and Laboratory Standards Institute M27, 4th Edition (CLSI standard M27, 4th Edition). Some modifications were applied for evaluation of the antifungal activity of EOs and terpenes. Initially, a screening was carried out to determine the antifungal activity of the EOs and of commercial terpenes. Stock concentrations of EOs and terpenes were prepared at 512 µg/mL and an inoculum of 2.5 × 10^3 CFU/mL of each yeast was prepared in RPMI 1640-MOPS (Sigma- Aldrich St. Louis, MO, USA). Thereafter, 100 µL of each stock solution of EOs or terpenes was dispensed in 96-well microdilution plates (Corning®, Costar®, NY, USA) and 100 µL of each yeast inoculum was added. […] Microdilution plates were incubated at 35 °C and, after 24 h, the presence or absence of growth was visually checked using a manual mirror viewer and then compared with the amount of growth in the control (no EO or terpene). Compounds able to inhibit yeast growth were tested to determine the minimal inhibitory concentration (MIC) as follows: 100 µL of 10 two-fold dilutions of the EOs or commercial terpenes was dispensed in 96-well microplates and the yeast inoculum was added. Final concentrations of the EOs or terpenes ranged from 0.5 µg/mL to 256 µg/mL. Microdilution plates were incubated at 35 °C for 24 h. MICs were visually determined at the lowest concentration that produced visual inhibition compared to the growth control. The assays were performed at least three times in duplicate on different days. The results were expressed as geometric means (GM) and ranges. As an antifungal susceptibility testing control, the activity of ITC and AMB against the reference strains C. krusei ATCC 6258 and C. parapsilosis ATCC 22019 was evaluated in all experiments following the CLSI standard M27, 4th Edition. It was mandatory that the MIC values remained in the accepted range.

[2] = system: C. tropicalis ATCC 200956; assay: MIC, CLSI M27 broth microdilution; assay type: cell-based, Candida tropicalis; details: for MIC: Candida tropicalis, read-out: GM MIC
From the text: as §1, §2

[3] = system: C. metapsilosis MUM 15.12; assay: MIC, CLSI M27 broth microdilution; assay type: cell-based, Candida metapsilosis; details: Lodderomyces metapsilosis, read-out: GM MIC
From the text: as §1, §2

[4] = system: C. orthopsilosis MUM 17.13; assay: MIC, CLSI M27 broth microdilution; assay type: cell-based, Candida orthopsilosis; details: Lodderomyces orthopsilosis, read-out: GM MIC
From the text: as §1, §2

[5] = system: C. lusitaniae MUM 17.08; assay: MIC, CLSI M27 broth microdilution; assay type: cell-based, Candida lusitaniae; details: for MIC: Clavispora lusitaniae, read-out: GM MIC
From the text: as §1, §2

[6] = system: C. auris CDC B11903; assay: MIC, CLSI M27 broth microdilution; assay type: cell-based, Candida auris; details: for MIC: Candidozyma auris, read-out: GM MIC
From the text: as §1, §2

[7] = system: C. auris Ca 13; assay: MIC, CLSI M27 broth microdilution; assay type: cell-based, Candida auris; details: for MIC: Candidozyma auris, read-out: GM MIC
From the text: as §1, §2

[8] = system: C. auris Ca 17; assay: MIC, CLSI M27 broth microdilution; assay type: cell-based, Candida auris; details: Candidozyma auris, read-out: GM MIC
From the text: as §1, §2

[9] = system: C. auris Ca 32; assay: MIC, CLSI M27 broth microdilution; assay type: cell-based, Candida auris; details: Candidozyma auris, read-out: GM MIC
From the text: as §1, §2

[10] = system: C. auris Ca 41; assay: MIC, CLSI M27 broth microdilution; assay type: cell-based, Candida auris; details: for MIC: Candidozyma auris, read-out: GM MIC
From the text: as §1, §2

[11] = system: C. auris Ca 45; assay: MIC, CLSI M27 broth microdilution; assay type: cell-based, Candida auris; details: for MIC: Candidozyma auris, read-out: GM MIC
From the text: as §1, §2

[12] = system: C. auris Ca 46; assay: MIC, CLSI M27 broth microdilution; assay type: cell-based, Candida auris; details: Candidozyma auris, read-out: GM MIC
From the text: as §1, §2

[13] = system: C. auris Ca 9; assay: MIC, CLSI M27 broth microdilution; assay type: cell-based, Candida auris; details: Candidozyma auris, read-out: GM MIC
From the text: as §1, §2

[14] = system: C. parapsilosis Synlab 406; assay: MIC, CLSI M27 broth microdilution; assay type: cell-based, Candida parapsilosis; details: for MIC: Lodderomyces parapsilosis, read-out: GM MIC
From the text: as §1, §2

[15] = Cytotoxicity, MTT assay; details: human, HaCaT keratinocyte cells
Description: Cells were cultured in Dulbecco’s Modified Eagle Medium (DMEM; Sigma-Aldrich, St. Louis, MO, USA) supplemented with 10% fetal bovine serum (Invitrogen, Carlsbad, CA, USA), 1% penicillin, streptomycin, and neomycin (Invitrogen, Carlsbad, CA, USA), and 1% L-glutamine (Invitrogen, Carlsbad, CA, USA) at 37 °C in a humidified atmosphere of 5% CO2. […] Afterwards, the culture medium was removed and 3-(4.5-dimethylthiazol-2-yl)-2.5-diphenyltetrazolium bromide (MTT) (Sigma-Aldrich, St. Louis, MO, USA) at 5 mg/mL was added at 37 °C for 2 h. Subsequently, DMSO was added to dissolve the formazan crystals. Finally, the absorbances were measured with a Multiskan SkyHigh Microplate Spectrophotometer (Thermo Fisher Scientific, Waltham, MA, USA) at λ = 570 nm. The CC50 values were obtained by linear regression analysis with concentration–response curves, which were performed with absorbance data using GraphPad Prism software (Prism 9.3.0, San Diego, CA, USA). The assays were conducted at two separate times in triplicate. The data were expressed as means.

[16] = system: C. auris Ca 1; assay: MIC, CLSI M27 broth microdilution; assay type: cell-based, Candida auris
From the text: as §1, §2

[17] = system: Candida spp.; assay: Screening of antifungal activity at 256 µg/mL against twenty strains; assay type: cell-based; details: screening at 256 µg/mL
From the text: as §1
Antifungal susceptibility testing was performed according to Clinical and Laboratory Standards Institute M27, 4th Edition (CLSI standard M27, 4th Edition). Some modifications were applied for evaluation of the antifungal activity of EOs and terpenes. Initially, a screening was carried out to determine the antifungal activity of the EOs and of commercial terpenes. Stock concentrations of EOs and terpenes were prepared at 512 µg/mL and an inoculum of 2.5 × 10^3 CFU/mL of each yeast was prepared in RPMI 1640-MOPS (Sigma- Aldrich St. Louis, MO, USA). Thereafter, 100 µL of each stock solution of EOs or terpenes was dispensed in 96-well microdilution plates (Corning®, Costar®, NY, USA) and 100 µL of each yeast inoculum was added. […] MICs were visually determined at the lowest concentration that produced visual inhibition compared to the growth control. […] The results were expressed as geometric means (GM) and ranges. As an antifungal susceptibility testing control, the activity of ITC and AMB against the reference strains C. krusei ATCC 6258 and C. parapsilosis ATCC 22019 was evaluated in all experiments following the CLSI standard M27, 4th Edition. […]

[18] = system: C. auris; set-up: method as in PMID 31980703; details: cited from earlier work

Range MIC ([1]; C. krusei ATCC 6258, EOs and terpenes): 128 to 256 µg/mL
MIC ([1]; ATCC6258, C. krusei ATCC 6258, EOs and terpenes, 24 h, top concentration 256 µg/mL): 181 µg/mL (≈ 1350 µM)
Range MIC ([2]; C. tropicalis ATCC 200956, EOs and terpenes): 128 to 256 µg/mL
MIC ([2]; ATCC200956, C. tropicalis ATCC 200956, EOs and terpenes, 24 h, top concentration 256 µg/mL): 181 µg/mL (≈ 1350 µM)
MIC ([3]; MUM15.12, C. metapsilosis MUM 17.13 (Table 3), EOs and terpenes, 24 h, top concentration 256 µg/mL): 256 µg/mL (≈ 1910 µM)
MIC ([4]; MUM17.13, C. orthopsilosis MUM 15.12 (Table 3), EOs and terpenes, 24 h, top concentration 256 µg/mL): 256 µg/mL (≈ 1910 µM)
MIC ([5]; MUM17.08, C. lusitaniae MUM 17.08, EOs and terpenes, 24 h, top concentration 256 µg/mL): 256 µg/mL (≈ 1910 µM)
MIC ([6]; CDCB11903, C. auris CDC B11903, EOs and terpenes, 24 h, top concentration 256 µg/mL): 256 µg/mL (≈ 1910 µM)
MIC ([7]; CA13, C. auris Ca 13, EOs and terpenes, 24 h, top concentration 256 µg/mL): 256 µg/mL (≈ 1910 µM)
MIC ([8]; CA17, C. auris Ca 17, EOs and terpenes, 24 h, top concentration 256 µg/mL): 256 µg/mL (≈ 1910 µM)
MIC ([9]; CA32, C. auris Ca 32, EOs and terpenes, 24 h, top concentration 256 µg/mL): 128 µg/mL (≈ 954 µM)
MIC ([10]; CA41, C. auris Ca 41, EOs and terpenes, 24 h, top concentration 256 µg/mL): 256 µg/mL (≈ 1910 µM)
MIC ([11]; CA45, C. auris Ca 45, EOs and terpenes, 24 h, top concentration 256 µg/mL): 256 µg/mL (≈ 1910 µM)
MIC ([12]; CA46, C. auris Ca 46, EOs and terpenes, 24 h, top concentration 256 µg/mL): 256 µg/mL (≈ 1910 µM)
MIC ([13]; CA9, C. auris Ca 9, EOs and terpenes, 24 h, top concentration 256 µg/mL): 256 µg/mL (≈ 1910 µM)
MIC ([14]; SYNLAB406, C. parapsilosis Synlab 406, EOs and terpenes, 24 h, top concentration 256 µg/mL): 256 µg/mL (≈ 1910 µM)
SMILES: Cc1ccc(C(C)C)cc1 [p-Cymene, p-cymene]
CC50 at 24 h [15]: 831 µg/mL (≈ 6190 µM)

SMILES: Cc1ccc(C(C)C)cc1O [Carvacrol, carvacrol]
MIC ([1]; ATCC6258, 24 h): 256 µg/mL (≈ 1700 µM)
MIC ([2]; ATCC200956, 24 h): 128 µg/mL (≈ 852 µM)
MIC ([3]; MUM15.12, 24 h): 128 µg/mL (≈ 852 µM)
MIC ([4]; MUM17.13, 24 h): 128 µg/mL (≈ 852 µM)
Range MIC ([5]; C. lusitaniae MUM 17.08, EOs and terpenes): 128 to 256 µg/mL
MIC ([5]; MUM17.08, 24 h): 181 µg/mL (≈ 1200 µM)
Range MIC ([6]; C. auris CDC B11903, EOs and terpenes): 64 to 128 µg/mL
MIC ([6]; CDCB11903, 24 h): 90.5 µg/mL (≈ 602 µM)
Range MIC ([7]; C. auris Ca 13, EOs and terpenes): 128 to 256 µg/mL
MIC ([7]; CA13, 24 h): 181 µg/mL (≈ 1200 µM)
MIC ([8]; CA17, 24 h): 128 µg/mL (≈ 852 µM)
Range MIC ([16]; C. auris Ca 1, EOs and terpenes): 128 to 256 µg/mL
MIC ([16]; Candidozyma auris, CA1, 24 h, read-out: GM MIC): 181 µg/mL (≈ 1200 µM)
MIC ([9]; CA32, 24 h): 64 µg/mL (≈ 426 µM)
Range MIC ([10]; C. auris Ca 41, EOs and terpenes): 64 to 128 µg/mL
MIC ([10]; CA41, 24 h): 90.5 µg/mL (≈ 602 µM)
Range MIC ([11]; C. auris Ca 45, EOs and terpenes): 64 to 128 µg/mL
MIC ([11]; CA45, 24 h): 90.5 µg/mL (≈ 602 µM)
MIC ([12]; CA46, 24 h): 64 µg/mL (≈ 426 µM)
MIC ([13]; CA9, 24 h): 256 µg/mL (≈ 1700 µM)
Range MIC ([14]; C. parapsilosis Synlab 406, EOs and terpenes): 32 to 64 µg/mL
MIC ([14]; SYNLAB406, 24 h): 45.3 µg/mL (≈ 302 µM)
antifungal activity in screening [17]: active against all tested Candida spp.
MIC Range [18]: 63 to 250 µg/mL
CC50 at 24 h [15]: 411 µg/mL (≈ 2730 µM)
